Source: patent US8193362B2 (Syngenta Crop Protection LLC, priority 2008, dated 2012)
Where a name gives a salt, the structure may show the parent alone.

Legend:
Format in all cases: in vivo
[1] = test system: Heliothis virescens (Tobacco Budworm); experiment: Heliothis virescens egg test on artificial diet in 24-well microtiter plate; settings: 96 h, 200 ppm (concentration in well 18 ppm), eggs 0-24 h old, 4 days, egg mortality, larval mortality, growth regulation
Method: (§1) Heliothis virescens (Tobacco Budworm):
Eggs (0-24 h old) were placed in 24-well microtiter plate on artificial diet and treated with test solutions at an application rate of 200 ppm (concentration in well 18 ppm) by pipetting. After an incubation period of 4 days, samples were checked for egg mortality, larval mortality and growth regulation.

[2] = test system: Spodoptera littoralis (Egyptian Cotton Leafworm); experiment: Spodoptera littoralis cotton leaf disc spray test; settings: foliar, 72 h, 200 ppm spray on cotton leaf discs, L1 larvae, mortality, feeding behavior, growth regulation 3 DAT
Source text: Spodoptera littoralis (Egyptian Cotton Leafworm)
Cotton leaf discs were placed on agar in a 24-well microtiter plate and sprayed with test solutions at an application rate of 200 ppm. After drying, the leaf discs were infested with 5 L1 larvae. The samples were checked for mortality, feeding behavior, and growth regulation 3 days after treatment (DAT).

[3] = test system: Plutella xylostella (Diamond Back Moth); experiment: Plutella xylostella L2 larvae test on artificial diet in 24-well microtiter plate; settings: 144 h, 200 ppm (concentration in well 18 ppm), 6 days, larval mortality, growth regulation
Method: Plutella xylostella (Diamond Back Moth):
(§2) A 24-well microtiter plate (MTP) with artificial diet was treated with test solutions at an application rate of 200 ppm (concentration in well 18 ppm) by pipetting. After drying, the MTP's were infested with L2 larvae (7-12 per well). After an incubation period of 6 days, samples were checked for larval mortality and growth regulation.

[4] = test system: Diabrotica balteata (Corn Root Worm); experiment: Diabrotica balteata L2 larvae test on artificial diet in 24-well microtiter plate; settings: 120 h, 200 ppm (concentration in well 18 ppm), 5 days, larval mortality, growth regulation
Method: Diabrotica balteata (Corn Root Worm):
as §2, with “with” for “with L2”, “(L2) (6-10” for “(7-12”, “5” for “6”, “mortality,” for “mortality”

[5] = test system: Heliothis virescens (Tobacco Budworm); experiment: Comparative Heliothis virescens egg test in petri dishes on artificial diet; settings: 144 h, 6 days incubation, read-out: percentage of dead larvae; for pest or weed control at 0.8 ppm: concentration 0.8 ppm; for pest or weed control at 1.5 ppm: concentration 1.5 ppm; for pest or weed control at 3 ppm: concentration 3 ppm; for pest or weed control at 6 ppm: concentration 6 ppm
Method: This Example illustrates the pesticidal/insecticidal properties of compounds of formula (I) compared to Comparative Compound A and Comparative Compound B. Comparative Compound A and Comparative Compound B were disclosed in WO 2006/003494.
as §1
Fresh eggs (0-24 h old) on filterpaper were placed in petri dishes on top of a layer of artificial diet and treated with diluted test solutions by pipetting. After an incubation period of 6 days, samples were checked for larval mortality and growth regulation. The percentage of dead larvae was assessed.

With `O=C(Nc1ccc(C(F)(F)F)nc1C1CC[N+]([O-])(C/C=C/c2ccc(C(F)(F)F)cc2)CC1)c1ccnc(Cl)c1` (stereo not shown) [Compound R3] the pest or weed control at 200 ppm [1] was at least 80%, the pest or weed control at 200 ppm [2] was at least 80% and the pest or weed control at 200 ppm [3] was at least 80%. It also gave a pest or weed control at 200 ppm [4] of at least 80%.
`O=C(Nc1ccc(C(F)(F)F)nc1C1CCN(C/C=C/c2ccc(Cl)cc2)CC1)c1ccnc(Cl)c1` [Compound Q1, 2-chloro-N-{1′-[(E)-3-(4-chloro-phenyl)-allyl]-6-trifluoromethyl-1′,2′,3′,4′,5′,6′-hexahydro-[2,4′]bipyridinyl-3-yl}-isonicotinamide 2-ethyl-hexanoic acid salt] gave a pest or weed control at 200 ppm [1] of at least 80%, a pest or weed control at 200 ppm [3] of at least 80% and a pest or weed control at 200 ppm [4] of at least 80%.
For `O=C(Nc1ccc(OC(F)F)nc1C1CCN(C/C=C/c2ccc(Cl)cc2)CC1)c1ccnc(Cl)c1` [Compound P1, 2-chloro-N-{1′-[(E)-3-(4-chloro-phenyl)-allyl]-6-difluoromethoxy-1′,2′,3′,4′,5′,6′-hexahydro-[2,4′]bipyridinyl-3-yl}-isonicotinamide], the pest or weed control at 200 ppm [1] was at least 80%, the pest or weed control at 200 ppm [2] was at least 80% and the pest or weed control at 200 ppm [3] was at least 80%. The pest or weed control at 200 ppm [4] was at least 80%.
Compound `O=C(Nc1ccc(C(F)(F)F)nc1C1CC[N+]([O-])(C/C=C/c2ccc(Cl)cc2)CC1)c1ccnc(Cl)c1` (stereo not shown) [Compound R1] has a pest or weed control at 200 ppm [1] of at least 80%, a pest or weed control at 200 ppm ([2]; in Gossypium hirsutum) of at least 80% and a pest or weed control at 200 ppm [3] of at least 80%. The pest or weed control at 200 ppm ([4]; in Zea mays) was at least 80%.
`O=C(Nc1cc(C(F)(F)F)c(Cl)nc1C1CCN(C/C=C/c2ccc(Cl)cc2)CC1)c1ccnc(Cl)c1` [Compound F2, 2-chloro-N-{6-chloro-1′-[(E)-3-(4-chloro-phenyl)-allyl]-5-trifluoromethyl-1′,2′,3′,4′,5′,6′-hexahydro-[2,4′]bipyridinyl-3-yl}-isonicotinamide] showed a pest or weed control at 200 ppm [1] of at least 80%, a pest or weed control at 0.8 ppm [5] of 100% and a pest or weed control at 1.5 ppm [5] of 100%. For the same compound, the pest or weed control at 3 ppm [5] was 100%, the pest or weed control at 6 ppm [5] was 100% and the pest or weed control at 200 ppm [2] was at least 80%. The pest or weed control at 200 ppm [3] was at least 80% and the pest or weed control at 200 ppm [4] was at least 80%.
With `O=C(Nc1cc(F)c(F)nc1C1CCN(C/C=C/c2ccc(Cl)cc2)CC1)c1ccnc(Cl)c1` [Compound N1, 2-chloro-N-{1′-[(E)-3-(4-chloro-phenyl)-allyl]-5,6-difluoro-1′,2′,3′,4′,5′,6′-hexahydro-[2,4′]bipyridinyl-3-yl}-isonicotinamide] the pest or weed control at 200 ppm [1] was at least 80%, the pest or weed control at 200 ppm [2] was at least 80% and the pest or weed control at 200 ppm [3] was at least 80%. The pest or weed control at 200 ppm [4] was at least 80%.
Compound `O=C(Nc1cc(C(F)(F)F)c(F)nc1C1CCN(C/C=C/c2ccc(Cl)cc2)CC1)c1ccnc(Cl)c1` [Compound M1, 2-chloro-N-{1′-[(E)-3-(4-chloro-phenyl)-allyl]-6-fluoro-5-trifluoromethyl-1′,2′,3′,4′,5′,6′-hexahydro-[2,4′]bipyridinyl-3-yl}-isonicotinamide] has a pest or weed control at 200 ppm [1] of at least 80%, a pest or weed control at 200 ppm [2] of at least 80% and a pest or weed control at 200 ppm [3] of at least 80%. For the same compound, the pest or weed control at 200 ppm [4] was at least 80%.
For `O=C(Nc1cc(F)c(Cl)nc1C1CCN(C/C=C/c2ccc(Cl)cc2)CC1)c1ccnc(Cl)c1` [Compound B1, 2-chloro-N-{6-chloro-1′-[(E)-3-(4-chloro-phenyl)-allyl]-5-fluoro-1′,2′,3′,4′,5′,6′-hexahydro-[2,4′]bipyridinyl-3-yl}-isonicotinamide], the pest or weed control at 200 ppm [1] was at least 80%, the pest or weed control at 0.8 ppm [5] was 80% and the pest or weed control at 1.5 ppm [5] was 100%. For the same compound, the pest or weed control at 3 ppm [5] was 100%, the pest or weed control at 6 ppm [5] was 100% and the pest or weed control at 200 ppm [2] was at least 80%. For the same compound, the pest or weed control at 200 ppm [3] was at least 80% and the pest or weed control at 200 ppm [4] was at least 80%.
`O=C(Nc1cc(Cl)c(Cl)nc1C1CCN(C/C=C/c2ccc(Cl)cc2)CC1)c1ccnc(Cl)c1` [Compound C1, 2-chloro-N-{5,6-dichloro-1′-[(E)-3-(4-chloro-phenyl)-allyl]-1′,2′,3′,4′,5′,6′-hexahydro-[2,4′]bipyridinyl-3-yl}-isonicotinamide] gave a pest or weed control at 0.8 ppm [5] of 100%, a pest or weed control at 1.5 ppm [5] of 100% and a pest or weed control at 3 ppm [5] of 100%. For the same compound, the pest or weed control at 6 ppm [5] was 100%, the pest or weed control at 200 ppm [2] was at least 80% and the pest or weed control at 200 ppm [4] was at least 80%.
Work on `O=C(Nc1cc(Cl)c(Cl)nc1C1CC[N+]([O-])(C/C=C/c2ccc(Cl)cc2)CC1)c1ccnc(Cl)c1` (stereo not shown) [Compound R2] yielded a pest or weed control at 200 ppm [1] of at least 80%, a pest or weed control at 200 ppm [2] of at least 80% and a pest or weed control at 200 ppm [3] of at least 80%. For the same compound, the pest or weed control at 200 ppm [4] was at least 80%.
For `O=C(Nc1cc(C(F)(F)F)c(Br)nc1C1CCN(C/C=C/c2ccc(Cl)cc2)CC1)c1ccnc(Cl)c1` [Compound G1, 2-chloro-N-{6-bromo-1′-[(E)-3-(4-chloro-phenyl)-allyl]-5-trifluoromethyl-1′,2′,3′,4′,5′,6′-hexahydro-[2,4′]bipyridinyl-3-yl}-isonicotinamide], the pest or weed control at 200 ppm [1] was at least 80%, the pest or weed control at 0.8 ppm [5] was 100% and the pest or weed control at 1.5 ppm [5] was 100%. For the same compound, the pest or weed control at 3 ppm [5] was 100%, the pest or weed control at 6 ppm [5] was 100% and the pest or weed control at 200 ppm [2] was at least 80%. The pest or weed control at 200 ppm [3] was at least 80% and the pest or weed control at 200 ppm [4] was at least 80%.
`O=C(Nc1cc(Cl)c(Br)nc1C1CCN(C/C=C/c2ccc(Cl)cc2)CC1)c1ccnc(Cl)c1` [Compound E7, N-{6-bromo-1′-[(E)-3-(4-chloro-phenyl)-allyl]-5-chloro-1′,2′,3′,4′,5′,6′-hexahydro-[2,4′]bipyridinyl-3-yl}-2-chloro-isonicotinamide] was tested, and the pest or weed control at 200 ppm [1] was at least 80%, the pest or weed control at 0.8 ppm [5] was 100% and the pest or weed control at 1.5 ppm [5] was 100%. The pest or weed control at 3 ppm [5] was 100%, the pest or weed control at 6 ppm [5] was 100% and the pest or weed control at 200 ppm [2] was at least 80%. The pest or weed control at 200 ppm [3] was at least 80% and the pest or weed control at 200 ppm [4] was at least 80%.
For `O=C(Nc1cc(F)c(Br)nc1C1CCN(C/C=C/c2ccc(Cl)cc2)CC1)c1ccnc(Cl)c1` [Compound D3, N-{6-bromo-1′-[(E)-3-(4-chloro-phenyl)-allyl]-5-fluoro-1′,2′,3′,4′,5′,6′-hexahydro-[2,4]bipyridinyl-3-yl}-2-chloro-isonicotinamide], the pest or weed control at 200 ppm [1] was at least 80%, the pest or weed control at 0.8 ppm [5] was 100% and the pest or weed control at 1.5 ppm [5] was 100%. The pest or weed control at 3 ppm [5] was 100%, the pest or weed control at 6 ppm [5] was 100% and the pest or weed control at 200 ppm [2] was at least 80%. For the same compound, the pest or weed control at 200 ppm [3] was at least 80% and the pest or weed control at 200 ppm [4] was at least 80%.
